Assay results: patent US20260049077A1, “Neurotrophic Receptor Tyrosine Kinase (NTRK) Inhibitors and Methods Using Same” (Baylor College of Medicine, priority 2022, published 2026)
Values joined by “and” are separate entries in the source; they are usually repeats but may differ in a detail not shown here. Equal values may be shown once. “Also recorded” adds a separate entry of the source. Read-outs that look alike come from different tables or passages of the source.

What was measured:
[1] = molecular target: T1, NTRK2 (Homo sapiens (Human), UniProt Q16620); experiment: NTRK2 inhibition (IC50); format: biochemical
T1 sequence (Q16620 32-822): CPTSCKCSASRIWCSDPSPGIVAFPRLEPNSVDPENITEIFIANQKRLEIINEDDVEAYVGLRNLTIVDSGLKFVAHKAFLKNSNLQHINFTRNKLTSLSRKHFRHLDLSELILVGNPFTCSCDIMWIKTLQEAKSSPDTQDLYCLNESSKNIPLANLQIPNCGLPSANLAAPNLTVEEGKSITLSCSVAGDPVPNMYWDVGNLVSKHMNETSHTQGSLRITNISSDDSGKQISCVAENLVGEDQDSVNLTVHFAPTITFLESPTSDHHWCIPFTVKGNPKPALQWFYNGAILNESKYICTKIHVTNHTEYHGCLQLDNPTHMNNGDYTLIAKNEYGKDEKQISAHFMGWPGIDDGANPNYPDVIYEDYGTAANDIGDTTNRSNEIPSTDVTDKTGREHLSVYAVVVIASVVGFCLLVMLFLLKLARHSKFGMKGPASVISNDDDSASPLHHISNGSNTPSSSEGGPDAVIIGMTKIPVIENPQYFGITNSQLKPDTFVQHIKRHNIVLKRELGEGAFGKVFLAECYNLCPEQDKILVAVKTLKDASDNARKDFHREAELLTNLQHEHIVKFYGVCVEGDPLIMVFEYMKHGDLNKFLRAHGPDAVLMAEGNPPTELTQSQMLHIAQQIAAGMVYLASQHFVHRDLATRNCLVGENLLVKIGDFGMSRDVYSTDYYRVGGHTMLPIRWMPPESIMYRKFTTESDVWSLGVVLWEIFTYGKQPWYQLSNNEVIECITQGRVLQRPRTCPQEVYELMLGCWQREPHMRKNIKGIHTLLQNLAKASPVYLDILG

[2] = test system: endometriotic lesions; experiment: Endometriosis mouse model, lesion efficacy; format: in vivo; conditions: 10 mg/kg, excised lesions
Method: FIGS. 17A-17F depict the robust efficacy of the inhibitory compounds of the present disclosure as NTRK2 inhibitors for inhibition of endometriotic lesion growth in mice utilizing CDD-3132 as an example. FIG. 17A provides a schematic overview of the experiment performed. FIGS. 17B-17C provide photographs showing excised lesions with administration of a control (FIG. 17B) or CDD-3132 (10 mg/kg/day) (FIG. 17C).
(§1) In one aspect, the present disclosure provides exemplary data relating to the administration of NTRK2 inhibitors in a mouse model of endometriosis (FIG. 14). In certain embodiments, the recipient mouse is administered the NTRK2 inhibitor and/or controls on day 14 after intraperitoneal injection of endometrium of the donor mouse. In certain embodiments, the recipient mouse is sacrificed and quantitatively assessed on day 28.

[3] = molecular target: ULK2 (Homo sapiens (Human), UniProt Q8IYT8); experiment: Promega K192 cell-based NanoBRET kinase occupancy assay
Method: (§2) Similarly, the selectivity of CDD-3031 for NTRK kinases was evaluated in a kinase occupancy assay (Promega K192 cell-based NanoBRET assay) using 192 kinases (Table 4).

[4] = molecular target: T2, NTRK1 (Homo sapiens (Human), UniProt P04629); experiment: as above
T2 sequence (P04629 33-796): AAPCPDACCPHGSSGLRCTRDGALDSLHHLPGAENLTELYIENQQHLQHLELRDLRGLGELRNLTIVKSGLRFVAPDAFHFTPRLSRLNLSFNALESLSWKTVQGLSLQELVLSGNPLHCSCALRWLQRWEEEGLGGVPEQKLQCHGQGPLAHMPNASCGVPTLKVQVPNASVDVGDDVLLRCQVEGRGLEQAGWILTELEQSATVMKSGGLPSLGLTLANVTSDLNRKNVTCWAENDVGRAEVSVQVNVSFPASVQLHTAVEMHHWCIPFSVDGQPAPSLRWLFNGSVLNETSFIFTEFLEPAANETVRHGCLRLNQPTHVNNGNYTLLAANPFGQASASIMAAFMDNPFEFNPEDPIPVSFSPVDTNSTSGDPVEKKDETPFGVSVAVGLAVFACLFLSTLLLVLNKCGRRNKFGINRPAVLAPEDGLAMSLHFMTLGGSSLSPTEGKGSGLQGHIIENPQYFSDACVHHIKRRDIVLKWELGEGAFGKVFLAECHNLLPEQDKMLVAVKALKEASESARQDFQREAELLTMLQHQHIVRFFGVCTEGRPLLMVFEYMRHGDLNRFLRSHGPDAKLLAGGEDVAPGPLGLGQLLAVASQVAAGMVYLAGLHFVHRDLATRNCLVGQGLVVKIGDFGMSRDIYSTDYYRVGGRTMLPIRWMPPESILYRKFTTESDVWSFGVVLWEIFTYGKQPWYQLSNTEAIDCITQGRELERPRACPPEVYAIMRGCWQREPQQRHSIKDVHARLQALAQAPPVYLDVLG
Method: as §2

[5] = molecular target: AURKC (Homo sapiens (Human), UniProt Q9UQB9); experiment: as above
AURKC, sequence (Q9UQB9 whole entry): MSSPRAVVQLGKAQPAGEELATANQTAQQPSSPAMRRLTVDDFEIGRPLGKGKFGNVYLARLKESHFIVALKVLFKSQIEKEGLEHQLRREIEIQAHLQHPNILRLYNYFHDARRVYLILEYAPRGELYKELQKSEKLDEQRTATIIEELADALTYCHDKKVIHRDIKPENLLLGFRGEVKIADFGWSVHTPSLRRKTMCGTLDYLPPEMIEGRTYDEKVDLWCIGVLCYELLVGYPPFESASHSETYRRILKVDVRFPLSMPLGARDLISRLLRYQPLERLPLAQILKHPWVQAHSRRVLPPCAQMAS
Method: as §2

[6] = molecular target: SGK1 (Homo sapiens (Human), UniProt O00141); experiment: as above
Method: as §2

[7] = molecular target: CLK1 (Homo sapiens (Human), UniProt P49759); experiment: as above
CLK1, sequence (P49759 whole entry): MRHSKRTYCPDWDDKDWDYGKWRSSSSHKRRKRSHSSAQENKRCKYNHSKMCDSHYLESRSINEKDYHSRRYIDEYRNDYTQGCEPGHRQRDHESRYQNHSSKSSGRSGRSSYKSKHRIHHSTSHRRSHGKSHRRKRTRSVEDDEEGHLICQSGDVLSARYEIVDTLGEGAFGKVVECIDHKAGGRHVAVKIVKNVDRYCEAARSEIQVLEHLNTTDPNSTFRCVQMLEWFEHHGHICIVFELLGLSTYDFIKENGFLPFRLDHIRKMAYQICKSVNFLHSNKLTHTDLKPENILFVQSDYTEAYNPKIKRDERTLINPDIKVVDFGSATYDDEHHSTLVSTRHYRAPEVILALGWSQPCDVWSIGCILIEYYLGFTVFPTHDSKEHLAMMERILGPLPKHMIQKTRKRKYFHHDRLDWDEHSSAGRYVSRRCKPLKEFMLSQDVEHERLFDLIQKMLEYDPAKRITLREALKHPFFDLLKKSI
Method: as §2

[8] = molecular target: MAP3K19 (Homo sapiens (Human), UniProt Q56UN5); experiment: as above
MAP3K19, sequence (Q56UN5 whole entry): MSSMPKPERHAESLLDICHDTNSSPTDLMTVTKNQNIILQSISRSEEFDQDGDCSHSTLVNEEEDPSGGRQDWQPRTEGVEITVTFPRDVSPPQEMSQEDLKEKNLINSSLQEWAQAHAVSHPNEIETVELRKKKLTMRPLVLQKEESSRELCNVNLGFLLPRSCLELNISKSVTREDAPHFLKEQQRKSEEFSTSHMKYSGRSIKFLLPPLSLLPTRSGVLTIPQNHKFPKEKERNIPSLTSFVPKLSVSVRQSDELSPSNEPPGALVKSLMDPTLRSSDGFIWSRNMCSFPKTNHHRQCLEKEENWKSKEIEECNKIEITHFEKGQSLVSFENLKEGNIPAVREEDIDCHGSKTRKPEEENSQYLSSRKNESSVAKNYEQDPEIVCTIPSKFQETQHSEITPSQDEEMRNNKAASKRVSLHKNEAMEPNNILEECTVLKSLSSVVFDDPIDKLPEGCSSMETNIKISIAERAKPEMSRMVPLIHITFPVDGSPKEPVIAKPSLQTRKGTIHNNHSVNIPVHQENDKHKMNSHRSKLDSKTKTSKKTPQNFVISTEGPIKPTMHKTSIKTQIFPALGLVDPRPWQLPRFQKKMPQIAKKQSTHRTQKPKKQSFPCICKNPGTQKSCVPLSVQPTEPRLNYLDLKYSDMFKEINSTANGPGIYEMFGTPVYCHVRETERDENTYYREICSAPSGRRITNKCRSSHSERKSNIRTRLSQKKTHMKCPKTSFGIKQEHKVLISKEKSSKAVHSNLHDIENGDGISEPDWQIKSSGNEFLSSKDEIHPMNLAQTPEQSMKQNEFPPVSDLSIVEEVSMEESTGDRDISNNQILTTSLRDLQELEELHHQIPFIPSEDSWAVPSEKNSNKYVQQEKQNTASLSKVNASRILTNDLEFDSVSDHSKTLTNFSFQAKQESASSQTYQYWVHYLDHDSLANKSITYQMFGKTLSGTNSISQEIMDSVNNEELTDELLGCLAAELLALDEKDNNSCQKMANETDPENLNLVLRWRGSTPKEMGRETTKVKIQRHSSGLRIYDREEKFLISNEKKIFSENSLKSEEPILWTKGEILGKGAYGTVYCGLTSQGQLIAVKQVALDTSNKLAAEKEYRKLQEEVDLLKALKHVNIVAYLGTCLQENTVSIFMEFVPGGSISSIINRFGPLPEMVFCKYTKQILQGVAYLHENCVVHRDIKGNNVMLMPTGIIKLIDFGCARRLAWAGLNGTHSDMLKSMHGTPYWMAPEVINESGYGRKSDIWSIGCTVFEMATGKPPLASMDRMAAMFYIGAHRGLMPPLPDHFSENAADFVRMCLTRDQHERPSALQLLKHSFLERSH
Method: as §2

[9] = molecular target: T1, NTRK2; experiment: as above
Method: as §2

[10] = molecular target: CSNK1A1L (Homo sapiens (Human), UniProt Q8N752); experiment: as above
CSNK1A1L, sequence (Q8N752 whole entry): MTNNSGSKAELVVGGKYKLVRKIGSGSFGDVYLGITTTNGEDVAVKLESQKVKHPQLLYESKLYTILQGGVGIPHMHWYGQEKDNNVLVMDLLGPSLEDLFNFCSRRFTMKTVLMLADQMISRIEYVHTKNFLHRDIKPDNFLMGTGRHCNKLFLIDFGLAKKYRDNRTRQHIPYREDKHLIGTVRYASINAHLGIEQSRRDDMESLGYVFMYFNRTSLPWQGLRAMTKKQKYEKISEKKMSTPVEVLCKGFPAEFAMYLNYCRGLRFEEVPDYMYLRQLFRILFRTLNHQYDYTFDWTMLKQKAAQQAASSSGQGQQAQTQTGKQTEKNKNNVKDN
Method: as §2

[11] = molecular target: DYRK1A (Homo sapiens (Human), UniProt Q13627); experiment: as above
Method: as §2

[12] = molecular target: MUSK (Homo sapiens (Human), UniProt O15146); experiment: as above
MUSK, sequence (O15146 24-869): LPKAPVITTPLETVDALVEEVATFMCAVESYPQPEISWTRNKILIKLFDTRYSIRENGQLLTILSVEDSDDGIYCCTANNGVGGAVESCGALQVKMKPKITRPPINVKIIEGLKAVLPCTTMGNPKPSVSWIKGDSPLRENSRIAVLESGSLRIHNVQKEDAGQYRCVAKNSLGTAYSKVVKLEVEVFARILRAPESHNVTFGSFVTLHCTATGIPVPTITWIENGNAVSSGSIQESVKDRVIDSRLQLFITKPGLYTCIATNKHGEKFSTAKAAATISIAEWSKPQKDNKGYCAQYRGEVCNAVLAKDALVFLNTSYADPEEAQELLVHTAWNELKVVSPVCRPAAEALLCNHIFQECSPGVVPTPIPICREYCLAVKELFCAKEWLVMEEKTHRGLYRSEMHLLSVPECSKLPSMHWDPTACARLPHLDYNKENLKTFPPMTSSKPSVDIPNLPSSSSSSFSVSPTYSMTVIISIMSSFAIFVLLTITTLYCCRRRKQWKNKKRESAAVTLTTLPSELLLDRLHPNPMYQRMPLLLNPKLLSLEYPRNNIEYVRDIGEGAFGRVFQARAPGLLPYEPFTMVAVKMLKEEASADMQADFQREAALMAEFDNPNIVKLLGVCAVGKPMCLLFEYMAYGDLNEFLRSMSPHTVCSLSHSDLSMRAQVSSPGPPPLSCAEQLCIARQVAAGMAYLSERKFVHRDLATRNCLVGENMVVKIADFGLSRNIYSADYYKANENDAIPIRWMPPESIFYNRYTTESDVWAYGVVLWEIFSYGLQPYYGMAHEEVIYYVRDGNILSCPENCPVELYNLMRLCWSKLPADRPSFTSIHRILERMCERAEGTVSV
Method: as §2

[13] = molecular target: NTRK3 (Homo sapiens (Human), UniProt Q16288); experiment: NTRK3 inhibition (IC50); conditions: read-out: NTRK3 IC50
[14] = Brain uptake in mice 24 hours post-administration; format: in vivo, mouse
[15] = Metabolic stability in human liver microsomes (HLM)
[16] = test system: 192 kinases; experiment: Promega K192 cell-based NanoBRET kinase occupancy assay (panel); conditions: 1 μM
Method: as §2

[17] = Plasma ALT and AST in mice after a high dose (50 mg/kg); format: in vivo, mouse
[18] = molecular target: T2, NTRK1; experiment: NTRK1 inhibition (IC50); conditions: read-out: NTRK1 IC50
[19] = Pharmacokinetics of CDD-3031 in mice, oral gavage; format: in vivo, mouse; conditions: oral gavage 50 mg/kg, n = 3, mean ± SD
Method: CDD-2330 was dissolved in 10% DMSO+0.5% methyl cellulose at 5 mg/mL. CDD-2330 was orally delivered at 50 mg/kg to mice (n=4). Blood samples were collected at 0, 0.25, 0.5, 1, 2, 4, 6, 8, and 24 h. Samples were analyzed by LC-MS, and the concentration of CDD-2330 was quantified with a standard curve (range: 0-10 μM). CDD-3031 was administered by oral gavage at a dose of 50 mg/kg. Blood samples were collected at […], 0.167, 0.25, 0.5, 1, 2, 4, 6, 8, and 24 h.

[20] = Metabolic stability in mouse liver microsomes (MLM)
[21] = Endometriosis mouse model, liver and kidney toxicity (organ weight, ALT, AST); format: in vivo; set-up: ALT (Mean ± SD) / AST (Mean ± SD): unit not given here
Method: as §1

[22] = plasma, 24 h after 50 mg/kg CDD-3031 by oral gavage, individual mice
[23] = i.p. dose of 10 mg/kg/day for 14 days

With `CN(Cc1ccn2ncc(C(N)=O)c2c1)C(=O)Nc1ccc(OC(F)(F)F)cc1` [CDD-3031, 5-((1-methyl-3-(4-(trifluoromethoxy)phenyl)ureido)methyl)pyrazolo[1,5-a]pyridine-3-carboxamide] the IC50 [1] was 11.9 nM, the endometriotic lesion growth [2] was “inhibiting endometriotic lesion growth” and the receptor occupancy at 1 µM ([3]; average, read-out: ULK2 kinase occupancy, Average (%)) was 4.48%. The receptor occupancy at 1 µM ([3]; replicate 1, read-out: ULK2 kinase occupancy, Replicate 1 (%)) was -5.12%, the receptor occupancy at 1 µM ([3]; replicate 2, read-out: ULK2 kinase occupancy, Replicate 2 (%)) was 14.1% and the receptor occupancy at 1 µM ([4]; average, read-out: NTRK1 kinase occupancy, Average (%)) was 73.2%. The receptor occupancy at 1 µM ([4]; replicate 1, read-out: NTRK1 kinase occupancy, Replicate 1 (%)) was 71.4%, the receptor occupancy at 1 µM ([4]; replicate 2, read-out: NTRK1 kinase occupancy, Replicate 2 (%)) was 75% and the receptor occupancy at 1 µM ([5]; average, read-out: AURKC kinase occupancy, Average (%)) was 4.09%. The receptor occupancy at 1 µM ([5]; replicate 1, read-out: AURKC kinase occupancy, Replicate 1 (%)) was -7.48%, the receptor occupancy at 1 µM ([5]; replicate 2, read-out: AURKC kinase occupancy, Replicate 2 (%)) was 15.7% and the receptor occupancy at 1 µM ([6]; average, read-out: SGK1 kinase occupancy, Average (%)) was 4.31%. For the same compound, the receptor occupancy at 1 µM ([6]; replicate 1, read-out: SGK1 kinase occupancy, Replicate 1 (%)) was 1.93%, the receptor occupancy at 1 µM ([6]; replicate 2, read-out: SGK1 kinase occupancy, Replicate 2 (%)) was 6.69% and the receptor occupancy at 1 µM ([7]; average, read-out: CLK1 kinase occupancy, Average (%)) was 4.92%. It also gave a receptor occupancy at 1 µM ([7]; replicate 1, read-out: CLK1 kinase occupancy, Replicate 1 (%)) of 3.65%, a receptor occupancy at 1 µM ([7]; replicate 2, read-out: CLK1 kinase occupancy, Replicate 2 (%)) of 6.2% and a receptor occupancy at 1 µM ([8]; average, read-out: MAP3K19 kinase occupancy, Average (%)) of 13.3%. The receptor occupancy at 1 µM ([8]; replicate 1, read-out: MAP3K19 kinase occupancy, Replicate 1 (%)) was 53.3%, the receptor occupancy at 1 µM ([8]; replicate 2, read-out: MAP3K19 kinase occupancy, Replicate 2 (%)) was -26.6% and the receptor occupancy at 1 µM ([9]; average, read-out: NTRK2 kinase occupancy, Average (%)) was 92.9%. For the same compound, the receptor occupancy at 1 µM ([9]; replicate 1, read-out: NTRK2 kinase occupancy, Replicate 1 (%)) was 94.6%, the receptor occupancy at 1 µM ([9]; replicate 2, read-out: NTRK2 kinase occupancy, Replicate 2 (%)) was 91.2% and the receptor occupancy at 1 µM ([10]; average, read-out: CSNK1A1L kinase occupancy, Average (%)) was 4.58%. For the same compound, the receptor occupancy at 1 µM ([10]; replicate 1, read-out: CSNK1A1L kinase occupancy, Replicate 1 (%)) was 9.24%, the receptor occupancy at 1 µM ([10]; replicate 2, read-out: CSNK1A1L kinase occupancy, Replicate 2 (%)) was -0.08% and the receptor occupancy at 1 µM ([11]; average, read-out: DYRK1A kinase occupancy, Average (%)) was 6.5%. The receptor occupancy at 1 µM ([11]; replicate 1, read-out: DYRK1A kinase occupancy, Replicate 1 (%)) was 8.58%, the receptor occupancy at 1 µM ([11]; replicate 2, read-out: DYRK1A kinase occupancy, Replicate 2 (%)) was 4.42% and the receptor occupancy at 1 µM ([12]; average, read-out: MUSK kinase occupancy, Average (%)) was 19.8%. It also gave a receptor occupancy at 1 µM ([12]; replicate 1, read-out: MUSK kinase occupancy, Replicate 1 (%)) of 17.5%, a receptor occupancy at 1 µM ([12]; replicate 2, read-out: MUSK kinase occupancy, Replicate 2 (%)) of 22.2% and an IC50 [13] of 25.3 nM. The “brain uptake relative to controls” value ([14]; brain and plasma 24 hours post-administration) was “low brain penetration; also recorded: relatively low brain uptake compared to chlorpromazine (positive control), but a high uptake as compared to hydroxyzine (negative control)”, the concentration at 24 h ([14]; mouse, brain, 24 h, read-out: Brain Concentration at 24 h (ng/mg)) was 350 ng/g and the half-life [15] was greater than 16.7 h. The “selectivity in 192-kinase occupancy panel” value [16] was “greater selectivity for NTRK2 and NTRK1”, the “potential liver and other tissue toxicity” value ([17]; high dose, 50 mg/kg) was “minimal effects” and the ALT [17, 22] was 35.89 IU/L and 24.49 IU/L and 52.86 IU/L and 48.18 IU/L. For the same compound, the AST [17, 22] was 86.81 IU/L and 64.53 IU/L and 68.33 IU/L and 72.84 IU/L, the IC50 [18] was 153 nM and the AUC(0-inf) ([19]; mouse, blood) was 478 ± 87.8 µM·h. For the same compound, the AUC(0-t) ([19]; mouse, blood) was 418 ± 62.1 µM·h, the Cmax ([19]; mouse, blood) was 37.1 ± 4.88 µM and the Tmax ([19]; mouse, blood) was 1.17 ± 0.76 h. The half-life ([19]; mouse, blood) was 8.03 ± 1.25 h, the MRT last ([19]; mouse, blood, read-out: MRT0-t) was 7.23 ± 0.38 h and the MRT inf ([19]; mouse, blood, read-out: MRT0-∞) was 10.7 ± 1.52 h. For the same compound, the CL/F [19] was 0.11 ± 0.02 mg/(hr*μmol/L)/kg, the Vd/F [19] was 1.22 ± 0.05 mg/(μmol/L)/kg and the half-life [20] was 13.1 h. The microsomal CLint [20] was 1.8 µL/min/mg, the “effect on liver and/or kidney weight and/or serum elevation of ALT and AST” value ([21]; 10 mg/kg, mice with endometriotic lesions) was “little to no effect” and the “ALT (Mean ± SD)” value [21, 23] was 16.6 ± 2.6. The “AST (Mean ± SD)” value [21, 23] was 46.9 ± 23.4 and the “impact on liver and kidney weights” value ([21]; mice treated for 14 days) was “no significant impact”.
